# Experimental data as given in ChEMBL document CHEMBL2390845, “Identification of PDZ ligands by docking-based virtual screening for the development of novel analgesic agents” (Bioorg Med Chem Lett, 2013).
# Calls of active or inactive are those of the source.
# Legend:
# [1] = target: Disks large homolog 4 (Homo sapiens) (UniProt P78352); test: Binding affinity to PSD-95 PDZ1 domain (unknown origin) expressed in Escherichia coli BL21 at 1 mM by 1H-15N HSQC NMR analysis
# [2] = target: Disks large homolog 4 (Homo sapiens) (UniProt P78352); test: Binding affinity to PSD-95 PDZ2 domain (unknown origin) expressed in Escherichia coli BL21 at 1 mM by 1H-15N HSQC NMR analysis
# [3] = test system: Rattus norvegicus; test: Antihyperalgesic activity in chronic constriction nerve injury-induced rat neuropathic pain model assessed as reduction in mechanical hyperalgesia measuring vocalisation threshold to paw-pressure at 122.6 ng administered intrathecally measured 15 mins post-compound treatment; type: functional, organism-based
# [4] = test system: Rattus norvegicus; test: Antihyperalgesic activity in intrathecally dosed chronic constriction nerve injury-induced rat neuropathic pain model assessed as vocalisation threshold to paw-pressure measured up to 120 mins post-compound treatment; type: functional, organism-based
# Chain of Disks large homolog 4 (Homo sapiens) (P78352 whole entry, looked up, the tested form may be a part): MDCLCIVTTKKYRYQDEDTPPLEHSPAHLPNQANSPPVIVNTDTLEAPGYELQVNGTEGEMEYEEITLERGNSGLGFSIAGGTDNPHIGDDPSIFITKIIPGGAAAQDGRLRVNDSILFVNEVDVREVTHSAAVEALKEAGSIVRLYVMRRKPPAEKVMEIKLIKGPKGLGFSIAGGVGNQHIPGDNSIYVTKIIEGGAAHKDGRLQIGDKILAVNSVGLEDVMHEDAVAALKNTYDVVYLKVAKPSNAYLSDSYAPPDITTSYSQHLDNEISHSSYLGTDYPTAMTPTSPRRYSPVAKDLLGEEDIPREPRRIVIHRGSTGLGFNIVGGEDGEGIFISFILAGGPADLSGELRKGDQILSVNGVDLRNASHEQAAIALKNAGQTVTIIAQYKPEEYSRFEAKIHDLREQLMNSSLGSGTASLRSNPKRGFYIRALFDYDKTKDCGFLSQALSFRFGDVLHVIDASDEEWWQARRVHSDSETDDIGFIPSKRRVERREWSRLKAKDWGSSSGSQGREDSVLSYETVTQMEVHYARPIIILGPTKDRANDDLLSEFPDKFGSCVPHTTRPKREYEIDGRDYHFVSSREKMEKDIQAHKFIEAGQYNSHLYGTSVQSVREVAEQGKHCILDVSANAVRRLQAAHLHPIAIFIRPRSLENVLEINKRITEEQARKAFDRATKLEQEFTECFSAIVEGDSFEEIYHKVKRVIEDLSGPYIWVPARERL
SMILES,Activity [1],Activity [2],Activity [3],Activity [4]
O=C(O)c1ccc(N[C@@H]2O[C@H](CO)[C@@H](O)[C@H](O)[C@H]2O)cc1,inactive,inactive,–,–
Cc1cc2cc(C)c(C(=O)O)nc2cc1C(=O)O,Active,Active,Active,Dose-dependent effect
O=C(N/N=C/c1cccc(O)c1O)c1ccc(O)cc1,inactive,inactive,–,–
